The values that follow come from patent publication US20090005435A1, “Novel Compounds, Pharmaceutical Compositions Containing Same, and Methods of Use for Same” (priority 2004, published 2009).

Converted amounts (≈) assume the structure as drawn. “And” between values parts separate entries of the source, which are not always exact repeats. Equal values may be shown once.

In one assay the test system is fatty acid oxidation. Put plainly: β-Oxidation assay, isolation of acid soluble products. In kind it is cell-based. Further details: Beta Oxidation: unit not given here. The note with it: for FAO MAx: maximal fatty acid oxidation, at the concentration given under E32. As to the method:
β-Oxidation Assay—Isolation of Acid Soluble Products A 24 well plate with 1 ml per well was prepared with 2.5×10^5 cells/well. The cells were incubated O/N. The next day, a solubilized palmitate solution was prepared. 50 μls of (1-^14C) Palmitic acid was added to a 2 ml centrifuge tube and dried under nitrogen gas. 2 mls of α-CD (α-Cyclodextran)-10 mg/ml in 10 mM Tris were added. This solution was incubated in a 37° C. water bath for 30 minutes. A hot mix was prepared by adding 25 μls of this solution to 2.5 μls of 200 μM Carnitine and 222.5 μls of serum free medium that is used for cells. The cells were then treated with the test compound in triplicate, and incubated at 37° C. for 60 minutes. The medium was removed and 250 μls of the hot mix were added. The test compound was added again, and further incubated at 37° C. for 60 minutes. The reaction was stopped with 50 μls of 2.6 N HClO4. The contents of the plate were transferred to a 1.5 ml centrifuge tube, and 50 μls of 4N KOH were then added, and the tube incubated in a 60° C. water bath for 30 min. Sodium acetate (1M, 75 μls) and sulfuric acid (3N, 50 μls) were added to the solution and vortexed. The tube was spun for 7 minutes at 1000 rpm at room temperature. A portion (225 μls) was removed, and the following were added (vortex after each addition, twice at the end): 938 μls of 1:1 Chloroform:Methanol; 468 μls of Chloroform; 281 μls distilled Water. The tubes were spun at 1000 rpm for 5 minutes. The upper phase was removed into a large glass scintillation vial and 5 mls of Budget solvent (scintillation liquid) was added. The tubes were well vortexed. Finally, C14 was counted for one minute.

The next assay deals with T1, purified human FAS (Homo sapiens, UniProt P49327).
T1 construct: Human FAS was purified from cultured ZR-75-1 human breast cancer cells; endogenous in cells; host or cells: ZR-75-1 human breast cancer cells (ATCC); enzyme purified by PEG precipitation and Mono Q chromatography
Put plainly: FAS enzymatic activity (malonyl-CoA dependent NADPH oxidation). The note with it: (SB). The class given is biochemical. The procedure: Purification of FAS from ZR-75-1 Human Breast Cancer Cells.
Human FAS was purified from cultured ZR-75-1 human breast cancer cells obtained from the American Type Culture Collection. The procedure, adapted from Linn et al., 1981, and Kuhajda et al., 1994, utilizes hypotonic lysis, successive polyethyleneglycol (PEG) precipitations, and anion exchange chromatography. ZR-75-1 cells are cultured at 37° C. with 5% CO2 in RPMI culture medium with 10% fetal bovine serum, penicillin and streptomycin.
Ten T150 flasks of confluent cells are lysed with 1.5 ml lysis buffer (20 mM Tris-HCl, pH 7.5, 1 mM EDTA, 0.1 mM phenylmethanesulfonyl fluoride (PMSF), 0.1% Igepal CA-630) and dounce homogenized on ice for 20 strokes. The lysate is centrifuged in JA-20 rotor (Beckman) at 20,000 rpm for 30 minutes at 4° C. and the supernatant is brought to 42 ml with lysis buffer. A solution of 50% PEG 8000 in lysis buffer is added slowly to the supernatant to a final concentration of 7.5%. After rocking for 60 minutes at 4° C., the solution is centrifuged in JA-20 rotor (Beckman) at 15,000 rpm for 30 minutes at 4° C. Solid PEG 8000 is then added to the supernatant to a final concentration of 15%. After the rocking and centrifugation is repeated as above, the pellet is resuspended overnight at 4° C. in 10 ml of Buffer A (20 mM K2HPO4, pH 7.4). After […] filtration, the protein solution is applied to a Mono Q 5/5 anion exchange column (Pharmacia). The column is washed for 15 minutes with buffer A at 1 ml/minute, and bound material is eluted with a linear 60-ml gradient over 60 minutes to 1 M KCl. FAS (MW˜270 kD) typically elutes at 0.25 M KCl in three 0.5 ml fractions identified using 4-15% SDS-PAGE with Coomassie G250 stain (Bio-Rad). FAS protein concentration is determined using the Coomassie Plus Protein Assay Reagent (Pierce) according to manufacturer's specifications using BSA as a standard. This procedure results in substantially pure preparations of FAS (>95%) as judged by Coomassie-stained gels.
Measurement of FAS Enzymatic Activity and Determination of the IC50 of the Compounds
FAS activity is measured by monitoring the malonyl-CoA dependent oxidation of NADPH spectrophotometrically at OD340 in 96-well plates (Dils et al and Arslanian et al, 1975). Each well contains 2 μg purified FAS, 100 mM K2HPO4, pH 6.5, 1 mM dithiothreitol (Sigma), and 187.5 μM β-NADPH (Sigma). Stock solutions of inhibitors are prepared in DMSO at 2, 1, and 0.5 mg/ml resulting in final concentrations of 20, 10, and 5 μg/ml when 1 μl of stock is added per well. For each experiment, cerulenin (Sigma) is run as a positive control along with DMSO controls, inhibitors, and blanks (no FAS enzyme) all in duplicate.
The assay is performed on a Molecular Devices SpectraMax Plus Spectrophotometer. The plate containing FAS, buffers, inhibitors, and controls are placed in the spectrophotometer heated to 37° C. Using the kinetic protocol, the wells are blanked on duplicate wells containing 100 μl of 100 mM K2HPO4, pH 6.5 and the plate is read at OD340 at 10 sec intervals for 5 minutes to measure any malonyl-CoA independent oxidation of NADPH. The plate is removed from the spectrophotometer and malonyl-CoA (67.4 μM, final concentration per well) and […] (61.8 μM, final concentration per well) are added to each well except to the blanks. The plate is read again as above with the kinetic protocol to measure the malonyl-CoA dependent NADPH oxidation. The difference between the Δ OD340 for the malonyl-CoA dependent and non-malonyl-CoA dependent NADPH oxidation is the specific FAS activity. Because of the purity of the FAS preparation, non-malonyl-CoA dependent NADPH oxidation is negligible.
The IC50 for the compounds against FAS is determined by plotting the Δ OD340 for each inhibitor concentration tested, performing linear regression and computing the best-fit line, r^2 values, and 95% confidence intervals. The concentration of compound yielding 50% inhibition of FAS is the IC50. […]

Assay [1] concerns MCF-7 human breast cancer cells. Put plainly: XTT cytotoxicity assay (M). The note with it: MCF7. In kind it is cell-based. The procedure: (§1) The XTT assay is a non-radioactive alternative for the [^51Cr] release cytotoxicity assay. XTT is a tetrazolium salt that is reduced to a formazan dye only by metabolically active, viable cells. The reduction of XTT is measured spectrophotometrically as OD490-OD650.
To measure the cytotoxicity of specific compounds against cancer cells, 9×10^3 MCF-7 human breast cancer cells, obtained from the American Type Culture Collection are plated per well in 96 well plates in DMEM medium with 10% fetal bovine serum, insulin, penicillin, and streptomycin. Following overnight culture at 37° C. and 5% CO2, the compounds to be tested, dissolved in DMSO, are added to the wells in 1 μl volume at the following concentrations: 80, 40, 20, 10, 5, 2.5, 1.25, and 0.625 μg/ml in triplicate. Additional concentrations are tested if required. 1 μl of DMSO is added to triplicate wells are the vehicle control. C75 is run at 40, 20, […], and 5 μg/ml in triplicate as positive controls.
(§2) After 72 hours of incubation, cells are incubated for 4 hours with the XTT reagent as per manufacturer's instructions (Cell Proliferation Kit II (XTT) Roche). Plates are read at OD490 and OD650 on a Molecular Devices SpectraMax Plus Spectrophotometer. Three wells containing the XTT reagent without cells serve as the plate blank. XTT data are reported as OD490-OD650. Averages and standard error of the mean are computed using SOFTmax Pro software ([…]).
(§3) The IC50 for the compounds is defined as the concentration of drug leading to a 50% reduction in OD490-OD650 compared to controls. The OD490-OD650 are computed by the SOFTmax PRO software (Molecular Devices) for each compound concentration. IC50 is calculated by linear regression, plotting the FAS activity as percent of control versus drug concentrations. Linear regression, best-fit line, r^2, and 95% confidence intervals are determined using Prism Version 3.0 (Graph Pad Software).
In general terms: Tetrazolium dyes change colour on reduction, which living cells bring about.

For a further assay, the system named is (O). Put plainly: XTT cytotoxicity assay (O). The class given is cell-based. The note with it: read-out: XTT (IC50) (O). As to the method:
as §1, §2, §3

In the next assay the target is viral HIV protease (Human immunodeficiency virus type 1 group M subtype B, UniProt P04585). The conditions noted are these: cited from earlier work.
Assay [2] deals with Mycobacterium tuberculosis. The note with it: in vitro; cited from earlier work.
The target in assay [3] is rat liver acyl-CoA synthetase. The note with it: read-out: 50% inhibition of rat liver acyl-CoA synthetase; cited from earlier work.
Another assay concerns Raji cells. The conditions noted are these: cited from earlier work.

T1 sequence (P49327 whole entry): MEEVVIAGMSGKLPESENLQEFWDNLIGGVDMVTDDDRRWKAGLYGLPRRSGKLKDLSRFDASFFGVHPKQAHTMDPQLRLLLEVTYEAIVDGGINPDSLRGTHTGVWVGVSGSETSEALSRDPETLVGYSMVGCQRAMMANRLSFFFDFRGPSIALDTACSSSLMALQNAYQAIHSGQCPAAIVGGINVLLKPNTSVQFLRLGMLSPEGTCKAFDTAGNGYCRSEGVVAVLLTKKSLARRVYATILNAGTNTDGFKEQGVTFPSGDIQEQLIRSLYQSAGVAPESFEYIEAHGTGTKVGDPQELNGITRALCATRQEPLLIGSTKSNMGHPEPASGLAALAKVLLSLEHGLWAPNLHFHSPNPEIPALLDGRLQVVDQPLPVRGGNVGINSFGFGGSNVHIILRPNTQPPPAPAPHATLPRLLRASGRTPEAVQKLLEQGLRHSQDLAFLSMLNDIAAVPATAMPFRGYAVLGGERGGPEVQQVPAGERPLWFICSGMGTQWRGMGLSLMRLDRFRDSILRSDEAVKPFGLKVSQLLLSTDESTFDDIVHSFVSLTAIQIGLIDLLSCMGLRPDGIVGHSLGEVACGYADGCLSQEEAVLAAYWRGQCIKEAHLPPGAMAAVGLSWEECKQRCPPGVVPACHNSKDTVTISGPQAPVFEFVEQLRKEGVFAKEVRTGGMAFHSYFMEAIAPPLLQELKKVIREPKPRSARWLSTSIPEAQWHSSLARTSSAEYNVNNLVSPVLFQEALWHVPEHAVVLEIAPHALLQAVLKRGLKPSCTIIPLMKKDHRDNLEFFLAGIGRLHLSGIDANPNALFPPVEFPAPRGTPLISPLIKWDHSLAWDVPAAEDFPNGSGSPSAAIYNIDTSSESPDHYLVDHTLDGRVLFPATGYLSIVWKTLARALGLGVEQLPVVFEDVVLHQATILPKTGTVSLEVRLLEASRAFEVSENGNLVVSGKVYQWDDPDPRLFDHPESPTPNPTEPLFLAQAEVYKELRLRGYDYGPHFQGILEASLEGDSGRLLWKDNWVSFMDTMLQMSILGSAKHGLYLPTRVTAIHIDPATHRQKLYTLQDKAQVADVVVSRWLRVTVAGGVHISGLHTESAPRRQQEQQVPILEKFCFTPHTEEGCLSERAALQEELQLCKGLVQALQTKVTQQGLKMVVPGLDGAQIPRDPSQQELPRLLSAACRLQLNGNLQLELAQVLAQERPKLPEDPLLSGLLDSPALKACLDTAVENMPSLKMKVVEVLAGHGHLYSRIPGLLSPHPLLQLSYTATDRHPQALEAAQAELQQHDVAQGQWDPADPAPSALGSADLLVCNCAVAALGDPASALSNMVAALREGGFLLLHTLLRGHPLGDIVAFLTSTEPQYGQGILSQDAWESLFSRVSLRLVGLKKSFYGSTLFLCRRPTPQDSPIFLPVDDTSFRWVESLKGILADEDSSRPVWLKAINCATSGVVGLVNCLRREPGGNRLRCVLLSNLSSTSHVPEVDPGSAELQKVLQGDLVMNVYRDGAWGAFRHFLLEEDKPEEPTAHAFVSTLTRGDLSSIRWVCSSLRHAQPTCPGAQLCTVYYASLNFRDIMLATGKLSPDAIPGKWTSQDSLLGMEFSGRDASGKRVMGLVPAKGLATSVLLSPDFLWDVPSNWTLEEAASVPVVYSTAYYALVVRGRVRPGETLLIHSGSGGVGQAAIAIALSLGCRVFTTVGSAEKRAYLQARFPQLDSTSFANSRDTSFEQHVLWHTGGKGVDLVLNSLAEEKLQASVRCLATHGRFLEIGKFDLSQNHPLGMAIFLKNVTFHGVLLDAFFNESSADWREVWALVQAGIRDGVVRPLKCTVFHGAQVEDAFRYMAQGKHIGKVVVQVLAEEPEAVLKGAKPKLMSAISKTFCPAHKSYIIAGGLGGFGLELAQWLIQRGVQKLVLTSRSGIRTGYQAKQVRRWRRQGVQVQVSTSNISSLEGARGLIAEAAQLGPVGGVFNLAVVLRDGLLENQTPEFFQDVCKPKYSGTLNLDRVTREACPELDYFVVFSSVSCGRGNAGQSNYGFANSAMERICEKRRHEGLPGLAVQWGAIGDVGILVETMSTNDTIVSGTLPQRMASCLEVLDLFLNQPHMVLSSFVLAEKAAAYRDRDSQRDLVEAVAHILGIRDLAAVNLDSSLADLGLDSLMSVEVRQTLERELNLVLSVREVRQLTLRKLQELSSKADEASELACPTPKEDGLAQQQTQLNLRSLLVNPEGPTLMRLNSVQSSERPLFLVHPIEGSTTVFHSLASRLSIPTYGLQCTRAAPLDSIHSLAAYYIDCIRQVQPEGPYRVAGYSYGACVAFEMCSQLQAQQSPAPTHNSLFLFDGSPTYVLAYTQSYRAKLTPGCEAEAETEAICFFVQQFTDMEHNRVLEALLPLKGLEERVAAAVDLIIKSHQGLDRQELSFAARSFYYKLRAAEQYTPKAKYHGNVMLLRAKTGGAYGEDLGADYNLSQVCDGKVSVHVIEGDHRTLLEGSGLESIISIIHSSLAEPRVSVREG

For the compound `CCCCCCCCC1(C)SC(=O)C(C)(C)C1=O` (stereo not shown) [Compound 6, 3,3,5-Trimethyl-5-octyl-thiophene-2,4-dione], the “FAO MAx, concentration at maximum” value with fatty acid oxidation turned out to be 6.25 µg/mL. Further, in the assay on fatty acid oxidation, the “FAO SC 150” value is recorded as “Neg”. Moreover, the “Beta Oxidation” value in the assay on fatty acid oxidation (0.097 ug/ml) was 100 and 86; with fatty acid oxidation (0.39 ug/ml), 110 and 93; in the assay on fatty acid oxidation (1.56 ug/ml), 110 and 102; in the assay with fatty acid oxidation (6.25 ug/ml), 121 and 141 and 130; with fatty acid oxidation (25 ug/ml), 57 and 52 and 53; in the assay with fatty acid oxidation (100 ug/ml) it was 19 and 29. The “FAO MAx” value in the assay on fatty acid oxidation stood at 141% at. In addition, the “FAS (IC50) (SB)” value on purified human FAS is “Neg (SB)”. Moreover, the IC50 in assay [1] was 23 µg/mL (≈ 85 µM); in the assay with (O), > 80 µg/mL.

As for `C/C=C/C/C=C/CCC(=O)[C@H]1O[C@H]1C(N)=O` [cerulenin, (2S,3R)-2,3-epoxy-4-oxo-7,10 dodecadienoyl amide], at viral HIV protease, the “inhibition of viral HIV protease at” value was 5 mg/mL. In addition, the “activity against Mycobacterium tuberculosis” value in assay [2] is reported as “no activity was found”.

Consider `CCCCCCC1(C)SC(=O)C(C)(C)C1=O` (stereo not shown) [Compound 9, 3,3,5-Trimethyl-5-hexyl-thiophene-2,4-dione], for which the “FAO MAx, concentration at maximum” value in the assay on fatty acid oxidation stood at 6.25 µg/mL. Moreover, the “FAO SC 150” value in the assay on fatty acid oxidation is listed as “Neg”. In addition, the “Beta Oxidation” value with fatty acid oxidation (0.097 ug/ml) is on record as 96; in the assay on fatty acid oxidation (0.39 ug/ml), 99; with fatty acid oxidation (1.56 ug/ml), 97; with fatty acid oxidation (6.25 ug/ml), 115; with fatty acid oxidation (25 ug/ml), 58; in the assay with fatty acid oxidation (100 ug/ml) it was 27. The “FAO MAx” value in the assay with fatty acid oxidation is listed as 115%. The “FAS (IC50) (SB)” value at purified human FAS was “Neg (SB)”. Further, the IC50 in assay [1] was found to be 5.3 µg/mL (≈ 21.9 µM); in the assay with (O), 14 µg/mL (≈ 57.8 µM).

Take `CCCC=CCC=CC=CC=NN=NO` [Triacsin C, 1-hydroxy-3-(E,E,E-2′,4′,7′-undecatrienylidine) triazene]: in assay [3], the IC50 is 8.7 µM. The “growth inhibition in Raji cells at” value in the assay on Raji cells was 1.0 µM.
